From patent publication US12492229B2, “Antimicrobial peptides” (Donald Danforth Plant Science Center, priority 2019, dated 2025)

Tests used:
A. tumefaciens = test: In vitro antibacterial activity; format: cell-based
A. rhizogenes = test: In vitro antibacterial activity; format: cell-based, Agrobacterium rhizogenes
Phytophthora capsici = format: cell-based; conditions: Pichia pastoris-expressed peptide
Fusarium oxysporum = format: cell-based
Alternaria brassicicola = format: cell-based; conditions: Pichia pastoris-expressed peptide
Fusarium graminearum = format: cell-based; conditions: Pichia pastoris-expressed peptide
Botrytis cinerea = format: cell-based; conditions: Pichia pastoris-expressed peptide

For “SbDef1: endogenous Sorghum bicolor defensin antifungal peptide, 49 amino acids, SEQ ID NO: 1; expressed in Pichia pastoris (VHVCTMRNKFFHGPCMSNKNCAASCIQHRIGGGGYCSSRRQICKCTLQC; Sorghum bicolor)”, the antibacterial activity (A. tumefaciens) was “does not exhibit any antibacterial activity”, the antibacterial activity (A. rhizogenes) was “does not exhibit any antibacterial activity” and the IC50 (Phytophthora capsici) was 2000 to 3000 nM. For the same substance, the “MLC (minimal lethal concentration)” value (Phytophthora capsici) was 6 µM, the IC50 (Fusarium oxysporum) was 200 to 500 nM and the “MLC (minimal lethal concentration)” value (Fusarium oxysporum) was 0.75 µM. The IC50 (Alternaria brassicicola) was 1500 to 2000 nM, the “MLC (minimal lethal concentration)” value (Alternaria brassicicola) was 6 µM and the IC50 (Fusarium graminearum) was 2000 to 3000 nM. For the same substance, the “MLC (minimal lethal concentration)” value (Fusarium graminearum) was 6 µM, the IC50 (Botrytis cinerea) was 1500 to 2000 nM and the “MLC (minimal lethal concentration)” value (Botrytis cinerea) was 3 µM.
